From patent US11548900B2, “Oxazino-quinazoline and oxazino-quinoline type compound, preparation method and uses thereof” (BEIJING SCITECH-MQ PHARMACEUTICALS LIMITED, priority 2018, dated 2023)

Tests used:
EGFR kinase = EGFR kinase (Homo sapiens (Human), UniProt P00533); experiment: Inhibition of EGFR kinase activity (ULight-labeled JAK-1 (Tyr1023) peptide substrate); type: biochemical; conditions: EGFR kinase 0.35 nM, ATP 150 μM, 2 hours
Outline: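 TR-FRET kinase assay: 0.35 nM EGFR, 150 μM ATP, 100 nM substrate, 2 h at room temperature in the dark after 5 min enzyme-compound preincubation, 1% DMSO. Compounds tested as 11-point 3-fold series, 2.5 μM to 0.042 nM final, duplicate; IC50 from 665/615 nm ratio-based inhibition.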

BT474 cells = experiment: Inhibition of cell proliferation, BT474 (CCK-8, 72 h); type: cell-based; conditions: Homo sapiens, BT-474, 72 h incubation
Outline: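 BT474 and HCC827 seeded at 10,000 and 3000 cells/well respectively, cultured overnight, then exposed to 10-point 3-fold compound dilutions (top stock 10 mM; 0.25% DMSO final) for 72 h. Viability by CCK-8, OD450; survival normalised to untreated and cell-free blanks, IC50 from curve fit.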

HER2 kinase = HER2 kinase (Homo sapiens (Human), UniProt P04626); experiment: Inhibition of HER2 kinase activity (ULight-labeled PolyGT substrate); type: biochemical; conditions: HER2 kinase 10 nM, ATP 10 μM, 2 hours
Outline: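 Eleven-point 3-fold dilutions (0.042 nM–2.5 μM final, 1% DMSO) tested in duplicate against 10 nM HER2 with 100 nM ULight-labelled PolyGT and 10 μM ATP. Reaction ran 2 h at RT after 5 min pre-incubation; 665/615 nm TR-FRET ratio used to derive inhibition and IC50.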

HCC827 cells = experiment: Inhibition of cell proliferation, HCC827 (CCK-8, 72 h); type: cell-based; conditions: Homo sapiens, 72 h incubation
Protocol: The assay for the inhibition of cell proliferation by small molecular compounds was carried out using the method as follows:
1. 600 μL pancreatin was added to a T75 cell culture flask, which was digested in a 37° C. incubator for about 1 min before 5 mL of DMEM complete culture solution was added, blew evenly, transferred to a 15 mL centrifuge tube, and centrifuged at 1000 rpm for 4 min;
2. The supernatant was removed and 5 mL DMEM complete culture solution was added, blew evenly, and 10 μL cell suspension was taken and mixed with 10 μL 0.4% Trypan Blue, and counted using a cell counter;
3. BT474 and HCC827 cell lines were seeded in 96-well plates at a cell density of 10,000 and 3000 cells/well/80 μL, respectively, and cultured overnight. Only sterile water was added to the 36 wells on the periphery of the 96-well plate without adding cells, and only the 60 wells in the center of the 96-well plate were used for cell assays and controls;
4. Dilution of compounds: the compounds were diluted with a 3-fold dilution to make 10 concentrations in total with an initial concentration of 10 mM;
5. 20 μL of different compounds with different concentrations were added to each well, and 20 μL of complete culture solution was added to the remaining wells. The final concentration of DMSO in each well is 0.25%;
6. After 72 h of incubation, 10 μL CCK-8 reagent was added to each well, and incubated at 37° C. for 1-2 h; and the OD value was read at 450 nm;
7. Cell survival rate (%)=[(As−Ab)/(Ac−Ab)]*100%
As: Assay well (medium containing cell, CCK-8, compound)
Ac: Control well (medium containing cell, CCK-8)
Ab: Blank well (CCK-8, medium without cell and compound)
8. The value was imported into Graphpad Prism5 software for the calculation of IC50s (compound concentration at which 50% maximum survival rate is observed).

Chain of EGFR kinase (P00533 25-1210): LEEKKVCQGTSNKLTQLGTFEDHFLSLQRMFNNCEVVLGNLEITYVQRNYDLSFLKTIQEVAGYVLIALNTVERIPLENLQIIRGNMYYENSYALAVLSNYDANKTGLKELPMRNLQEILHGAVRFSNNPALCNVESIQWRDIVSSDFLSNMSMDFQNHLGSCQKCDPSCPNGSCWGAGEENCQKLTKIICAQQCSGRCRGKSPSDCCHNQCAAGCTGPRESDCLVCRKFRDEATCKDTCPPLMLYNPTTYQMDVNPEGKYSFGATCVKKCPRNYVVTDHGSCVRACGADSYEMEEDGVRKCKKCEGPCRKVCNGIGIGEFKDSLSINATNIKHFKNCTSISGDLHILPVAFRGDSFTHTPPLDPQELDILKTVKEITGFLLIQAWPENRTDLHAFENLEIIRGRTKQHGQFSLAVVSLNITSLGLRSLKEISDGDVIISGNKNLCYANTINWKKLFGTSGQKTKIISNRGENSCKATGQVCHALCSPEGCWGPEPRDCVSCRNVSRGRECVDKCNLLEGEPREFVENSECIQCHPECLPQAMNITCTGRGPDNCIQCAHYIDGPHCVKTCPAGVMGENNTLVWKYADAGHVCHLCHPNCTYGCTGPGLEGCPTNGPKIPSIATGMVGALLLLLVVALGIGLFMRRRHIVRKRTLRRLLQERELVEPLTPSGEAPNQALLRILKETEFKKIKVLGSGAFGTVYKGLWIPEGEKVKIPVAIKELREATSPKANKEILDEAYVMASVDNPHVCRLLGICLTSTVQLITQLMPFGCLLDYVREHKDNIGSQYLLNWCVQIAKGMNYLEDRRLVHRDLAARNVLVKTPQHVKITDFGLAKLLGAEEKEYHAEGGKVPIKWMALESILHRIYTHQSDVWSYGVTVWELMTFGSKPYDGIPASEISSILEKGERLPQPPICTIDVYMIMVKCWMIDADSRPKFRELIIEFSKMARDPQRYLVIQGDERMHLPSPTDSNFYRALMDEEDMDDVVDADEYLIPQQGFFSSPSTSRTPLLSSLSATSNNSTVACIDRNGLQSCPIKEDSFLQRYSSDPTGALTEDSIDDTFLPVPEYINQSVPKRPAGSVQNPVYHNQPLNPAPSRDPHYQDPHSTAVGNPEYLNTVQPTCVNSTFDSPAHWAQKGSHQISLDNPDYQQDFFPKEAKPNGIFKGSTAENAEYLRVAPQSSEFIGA
Chain of HER2 kinase (P04626 23-1255): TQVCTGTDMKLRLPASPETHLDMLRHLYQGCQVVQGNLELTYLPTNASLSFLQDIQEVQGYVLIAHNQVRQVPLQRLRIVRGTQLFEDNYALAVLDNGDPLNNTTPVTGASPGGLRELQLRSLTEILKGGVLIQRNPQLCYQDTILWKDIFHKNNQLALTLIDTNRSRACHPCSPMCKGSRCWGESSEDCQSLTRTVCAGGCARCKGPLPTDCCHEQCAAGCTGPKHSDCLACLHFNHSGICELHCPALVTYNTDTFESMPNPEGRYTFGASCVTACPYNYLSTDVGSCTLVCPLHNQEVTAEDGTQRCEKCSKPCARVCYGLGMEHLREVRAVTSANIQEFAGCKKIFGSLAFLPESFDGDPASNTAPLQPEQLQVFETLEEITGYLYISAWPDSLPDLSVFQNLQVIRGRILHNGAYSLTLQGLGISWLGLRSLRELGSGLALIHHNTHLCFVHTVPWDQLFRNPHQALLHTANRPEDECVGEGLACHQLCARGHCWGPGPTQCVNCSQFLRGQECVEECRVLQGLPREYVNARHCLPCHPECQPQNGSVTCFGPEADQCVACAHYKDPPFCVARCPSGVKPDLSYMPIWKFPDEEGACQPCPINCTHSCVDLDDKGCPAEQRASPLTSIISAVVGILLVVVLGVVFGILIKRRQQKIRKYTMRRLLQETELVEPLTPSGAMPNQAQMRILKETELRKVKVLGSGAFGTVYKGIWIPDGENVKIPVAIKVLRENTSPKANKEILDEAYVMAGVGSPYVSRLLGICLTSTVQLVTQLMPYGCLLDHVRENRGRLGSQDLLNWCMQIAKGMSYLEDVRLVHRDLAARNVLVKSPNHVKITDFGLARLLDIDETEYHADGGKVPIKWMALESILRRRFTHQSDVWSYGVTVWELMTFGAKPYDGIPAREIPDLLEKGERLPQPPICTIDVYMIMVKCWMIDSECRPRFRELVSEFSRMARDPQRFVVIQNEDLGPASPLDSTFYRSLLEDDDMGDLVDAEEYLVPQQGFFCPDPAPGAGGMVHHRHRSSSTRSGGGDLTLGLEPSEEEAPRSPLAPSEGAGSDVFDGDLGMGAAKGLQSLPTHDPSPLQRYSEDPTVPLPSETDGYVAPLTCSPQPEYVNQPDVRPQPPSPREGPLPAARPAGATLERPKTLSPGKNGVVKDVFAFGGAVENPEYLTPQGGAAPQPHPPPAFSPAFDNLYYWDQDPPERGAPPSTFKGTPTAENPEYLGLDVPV

CN(C)C/C=C/C(=O)N1CCOc2c1ccc1ncnc(Nc3ccc(Oc4ccccc4)cc3)c21 [Example 44, (E)-4-(dimethylamino)-1-(10-((4-phenoxyphenyl)amino)-2,3-dihydro-4H-[1,4]oxazino[2,3-f]quinazolin-4-yl)but-2-en-1-one]
IC50 (EGFR kinase): ≤ 50 nM
IC50 (BT474 cells): ≤ 50 nM
IC50 (HER2 kinase): ≤ 50 nM
IC50 (HCC827 cells): 500 to 5000 nM

CN(C)C/C=C/C(=O)N1CCOc2c1ccc1ncnc(Nc3ccc(OCc4ccccn4)c(Cl)c3)c21 [Example 46, (E)-1-(10-((3-chloro-4-(pyridin-2-ylmethoxy)phenyl)amino)-2,3-dihydro-4H-[1,4]oxazino[2,3-f]quinazolin-4-yl)-4-(dimethylamino)but-2-en-1-one]
IC50 (EGFR kinase): ≤ 50 nM
IC50 (BT474 cells): ≤ 50 nM
IC50 (HER2 kinase): ≤ 50 nM
IC50 (HCC827 cells): 50 to 500 nM

Cc1cccc(Oc2ccc(Nc3ncnc4ccc5c(c34)OCCN5C(=O)/C=C/CN(C)C)cc2)c1 [Example 47, (E)-4-(dimethylamino)-1-(10-((4-(m-tolyloxy)phenyl)amino)-2,3-dihydro-4H-[1,4]oxazino[2,3-f]quinazolin-4-yl)but-2-en-1-one]
IC50 (EGFR kinase): ≤ 50 nM
IC50 (BT474 cells): ≤ 50 nM
IC50 (HER2 kinase): ≤ 50 nM
IC50 (HCC827 cells): 500 to 5000 nM

CN(C)C/C=C/C(=O)N1CCOc2c1ccc1ncnc(Nc3ccc(Oc4cccc(Cl)c4)cc3)c21 [Example 48, (E)-4-(dimethylamino)-1-(10-((4-(3-chlorophenoxy)phenyl)amino)-2,3-dihydro-4H-[1,4]oxazino[2,3-f]quinazolin-4-yl)but-2-en-1-one]
IC50 (EGFR kinase): ≤ 50 nM
IC50 (BT474 cells): 50 to 500 nM
IC50 (HER2 kinase): ≤ 50 nM
IC50 (HCC827 cells): 500 to 5000 nM

CN(C)C/C=C/C(=O)N1CCOc2c1ccc1ncnc(Nc3ccc(Oc4cccc(F)c4)cc3)c21 [Example 49, (E)-4-(dimethylamino)-1-(10-((4-(3-fluorophenoxy)phenyl)amino)-2,3-dihydro-4H-[1,4]oxazino[2,3-f]quinazolin-4-yl)but-2-en-1-one]
IC50 (EGFR kinase): ≤ 50 nM
IC50 (BT474 cells): ≤ 50 nM
IC50 (HER2 kinase): ≤ 50 nM
IC50 (HCC827 cells): 50 to 500 nM

CN(C)C/C=C/C(=O)N1CCOc2c1ccc1ncnc(Nc3ccc(Oc4ccccc4F)cc3)c21 [Example 50, (E)-4-(dimethylamino)-1-(10-((4-(2-fluorophenoxy)phenyl)amino)-2,3-dihydro-4H-[1,4]oxazino[2,3-f]quinazolin-4-yl)but-2-en-1-one]
IC50 (EGFR kinase): ≤ 50 nM
IC50 (BT474 cells): ≤ 50 nM
IC50 (HER2 kinase): ≤ 50 nM
IC50 (HCC827 cells): 500 to 5000 nM

CN(C)C/C=C/C(=O)N1CCOc2c1ccc1ncnc(Nc3ccc(Oc4ccc(F)cc4)cc3)c21 [Example 51, (E)-4-(dimethylamino)-1-(10-((4-(4-fluorophenoxy)phenyl)amino)-2,3-dihydro-4H-[1,4]oxazino[2,3-f]quinazolin-4-yl)but-2-en-1-one]
IC50 (EGFR kinase): ≤ 50 nM
IC50 (BT474 cells): ≤ 50 nM
IC50 (HER2 kinase): ≤ 50 nM
IC50 (HCC827 cells): 500 to 5000 nM

COc1ccccc1Oc1ccc(Nc2ncnc3ccc4c(c23)OCCN4C(=O)/C=C/CN(C)C)cc1 [Example 53, (E)-4-(dimethylamino)-1-(10-((4-(2-methoxyphenoxy)phenyl)amino)-2,3-dihydro-4H-[1,4]oxazino[2,3-f]quinazolin-4-yl)but-2-en-1-one]
IC50 (EGFR kinase): ≤ 50 nM
IC50 (BT474 cells): ≤ 50 nM
IC50 (HER2 kinase): ≤ 50 nM
IC50 (HCC827 cells): 500 to 5000 nM

CN(C)C/C=C/C(=O)N1CCOc2c1ccc1ncnc(Nc3ccc(Oc4cccnc4)cc3)c21 [Example 54]
IC50 (EGFR kinase): 500 to 5000 nM
IC50 (BT474 cells): ≤ 50 nM
IC50 (HER2 kinase): ≤ 50 nM
IC50 (HCC827 cells): 500 to 5000 nM

COc1cccc(Oc2ccc(Nc3ncnc4ccc5c(c34)OCCN5C(=O)/C=C/CN(C)C)cc2)c1 [Example 56, (E)-4-(dimethylamino)-1-(10-((4-(3-methoxyphenoxy)phenyl)amino)-2,3-dihydro-4H-[1,4]oxazino[2,3-f]quinazolin-4-yl)but-2-en-1-one]
IC50 (EGFR kinase): ≤ 50 nM
IC50 (BT474 cells): ≤ 50 nM
IC50 (HER2 kinase): ≤ 50 nM
IC50 (HCC827 cells): 500 to 5000 nM

CN(C)C/C=C/C(=O)N1CCOc2c1ccc1ncnc(Nc3ccc(Oc4nccs4)cc3)c21 [Example 57, (E)-4-(dimethylamino)-1-(10-((4-(thiazol-2-yloxy)phenyl)amino)-2,3-dihydro-4H-[1,4]oxazino[2,3-f]quinazolin-4-yl)but-2-en-1-one]
IC50 (EGFR kinase): 50 to 500 nM
IC50 (BT474 cells): ≤ 50 nM
IC50 (HER2 kinase): ≤ 50 nM
IC50 (HCC827 cells): 500 to 5000 nM

CN(C)C/C=C/C(=O)N1CCOc2c1ccc1ncnc(Nc3ccc(Oc4ccccc4)c(Cl)c3)c21 [Example 59, (E)-4-(dimethylamino)-1-(10-((3-chloro-4-phenoxyphenyl)amino)-2,3-dihydro-4H-[1,4]oxazino[2,3-f]quinazolin-4-yl)but-2-en-1-one]
IC50 (EGFR kinase): ≤ 50 nM
IC50 (BT474 cells): ≤ 50 nM
IC50 (HER2 kinase): ≤ 50 nM
IC50 (HCC827 cells): 500 to 5000 nM

CN(C)C/C=C/C(=O)N1CCOc2c1ccc1ncnc(Nc3ccc(OCc4ccc(F)cc4)cc3)c21 [Example 60, (E)-4-(dimethylamino)-1-(10-((4-((4-fluorobenzyl)oxy)phenyl)amino)-2,3-dihydro-4H-[1,4]oxazino[2,3-f]quinazolin-4-yl)but-2-en-1-one]
IC50 (EGFR kinase): ≤ 50 nM
IC50 (BT474 cells): ≤ 50 nM
IC50 (HER2 kinase): ≤ 50 nM
IC50 (HCC827 cells): 500 to 5000 nM

O=C(/C=C/CNC1CCC1)N1CCOc2c1ccc1ncnc(Nc3ccc(OCc4ccccn4)c(Cl)c3)c21 [Example 109, (E)-1-(10-((3-chloro-4-(pyridin-2-ylmethoxy)phenyl)amino)-2,3-dihydro-4H-[1,4]oxazino[2,3-f]quinazolin-4-yl)-4-(cyclobutylamino)but-2-en-1-one]
IC50 (BT474 cells): ≤ 50 nM
IC50 (HER2 kinase): ≤ 50 nM
IC50 (HCC827 cells): 50 to 500 nM

CN1CCC[C@H]1/C=C/C(=O)N1CCOc2c1ccc1ncnc(Nc3ccc(OCc4ccccn4)c(Cl)c3)c21 [Example 112, (S,E)-1-(10-((3-chloro-4-(pyridin-2-ylmethoxy)phenyl)amino)-2,3-dihydro-4H-[1,4]oxazino[2,3-f]quinazolin-4-yl)-3-(1-methylpyrrolidin-2-yl)prop-2-en-1-one]
IC50 (BT474 cells): ≤ 50 nM
IC50 (HER2 kinase): ≤ 50 nM
IC50 (HCC827 cells): 50 to 500 nM

CC#CC(=O)N1CCOc2c1ccc1ncnc(Nc3ccc(OCc4ccccn4)c(Cl)c3)c21 [Example 113, 1-(10-((3-chloro-4-(pyridin-2-ylmethoxy)phenyl)amino)-2,3-dihydro-4H-[1,4]oxazino[2,3-f]quinazolin-4-yl)but-2-yne-1-one]
IC50 (BT474 cells): 50 to 500 nM
IC50 (HER2 kinase): ≤ 50 nM
IC50 (HCC827 cells): 500 to 5000 nM

CC1(O)CCN(C/C=C/C(=O)N2CCOc3c2ccc2ncnc(Nc4ccc(OCc5ccccn5)c(Cl)c4)c32)CC1 [Example 116, (E)-1-(10-((3-chloro-4-(pyridin-2-ylmethoxy)phenyl)amino)-2,3-dihydro-4H-[1,4]oxazino[2,3-f]quinazolin-4-yl)-4-(4-hydroxyl-4-methylpiperidin-1-yl)but-2-en-1-one]
IC50 (BT474 cells): ≤ 50 nM
IC50 (HER2 kinase): ≤ 50 nM
IC50 (HCC827 cells): 50 to 500 nM

COCCN(C)C/C=C/C(=O)N1CCOc2c1ccc1ncnc(Nc3ccc(OCc4ccccn4)c(Cl)c3)c21 [Example 119, (E)-1-(10-((3-chloro-4-(pyridin-2-ylmethoxy)phenyl)amino)-2,3-dihydro-4H-[1,4]oxazino[2,3-f]quinazolin-4-yl)-4-((2-methoxyethyl)(methyl)amino)but-2-en-1-one]
IC50 (BT474 cells): ≤ 50 nM
IC50 (HER2 kinase): ≤ 50 nM
IC50 (HCC827 cells): 50 to 500 nM
